In ChEMBL document CHEMBL5512605, “Targeted regulated cell death with small molecule compounds in colorectal cancer: Current perspectives of targeted therapy and molecular mechanisms” (Eur J Med Chem, 2024) one finds IC, IC50 and Kd data, which are given here for eleven compounds.

For assay [1], the system named is LoVo. The experiment in a line: Antiproliferative activity against human LoVo cells assessed as inhibition of cell viability by CellTiter-Glo Luminescent Assay. It counts as functional.
For assay [2], the system named is SW-620. The experiment in a line: Antiproliferative activity against human SW-620 cells assessed as inhibition of cell viability by CellTiter-Glo Luminescent Assay. It counts as functional.
Assay [3] deals with HT-29. The experiment in a line: Antiproliferative activity against human HT-29 cells assessed as inhibition of cell viability by CellTiter-Glo Luminescent Assay. It counts as functional.
Assay [4] has as its system DLD-1. Briefly: Antiproliferative activity against human DLD-1 cells assessed as inhibition of cell viability by CellTiter-Glo Luminescent Assay. Format: functional.
Assay [5] concerns HCT-116. The experiment in a line: Antiproliferative activity against human HCT-116 cells assessed as inhibition of cell viability by CellTiter-Glo Luminescent Assay. Format: functional.
The test system of assay [6] is HCT-116. The experiment in a line: Antiproliferative activity against human HCT-116 cells by CCK-8 method. It counts as functional.
Assay [7] is described as follows: Inhibition of NEMO/IKKbeta (unknown origin). Further details: species or system Homo sapiens.
Another assay has as its system HCT-15. The experiment in a line: Antiproliferative activity against human HCT-15 cells by CCK-8 method. Format: functional.
For assay [8], the system named is SW-620. Briefly: Antiproliferative activity against human SW620 cells by CCK-8 method. Format: functional.
Assay [9] concerns RKO. Briefly: Antiproliferative activity against human RKO cells by CCK-8 method. It counts as functional.
The test system of assay [10] is LoVo. The experiment in a line: Antiproliferative activity against human LoVo cells by CCK-8 method. Format: functional.
In assay [11] the test system is SW-620. The experiment in a line: Cytotoxicity against human SW620 cells assessed as inhibition of cell proliferation measured after 48 hrs by MTT assay. It counts as functional, cell-based. The conditions noted are these: SW-620, 48 h.
Assay [12] concerns HCT-116. The experiment in a line: Cytotoxicity against human HCT-116 cells assessed as inhibition of cell proliferation measured after 48 hrs by MTT assay. The note with it: HCT-116, 48 h. It counts as functional, cell-based.
The subject of assay [13] is RKO. Briefly: Cytotoxicity against human RKO cells assessed as inhibition of cell proliferation measured after 48 hrs by MTT assay. It counts as functional, cell-based.
Assay [14] relates to HT-29. Briefly: Antiproliferative activity against human HT-29 cells. Format: functional.
Assay [15] has as its system HCT-116. The experiment in a line: Cytotoxicity against human HCT-116 cells. It counts as functional, cell-based.
In assay [16] the test system is SW-620. Briefly: Cytotoxicity against human SW620 cells. Format: functional, cell-based.
In the next assay the target is Phospholipase D2 (Homo sapiens, UniProt O14939). Briefly: Inhibition of PLD2 (unknown origin).
Assay [17] has as its system DLD-1. Briefly: Cytotoxicity against human DLD-1 cells. Format: functional.
The target of a further assay is Phospholipase D1 (Homo sapiens, UniProt Q13393). Briefly: Inhibition of PLD1 (unknown origin).
Assay [18] deals with HT-29. The experiment in a line: Cytotoxicity against human HT-29 cells assessed as inhibition of cell viability by MTT assay. It counts as functional.
The subject of assay [19] is SW480. Briefly: Cytotoxicity against human SW480 cells assessed as inhibition of cell viability by MTT assay. Format: functional.
The subject of assay [20] is SW480. The experiment in a line: Antiproliferative activity against human SW480 cells assessed as reduction in cell viability. It counts as functional.
Assay [21] concerns SW-620. Briefly: Antiproliferative activity against human SW620 cells assessed as reduction in cell viability. It counts as functional.
Assay [22] deals with HT-29. Briefly: Cytotoxicity against human HT-29 cells incubated for 24 hrs by MTT assay. It counts as functional, cell-based. The note with it: HT-29, 24 h.
Assay [23] concerns SW-620. Briefly: Antiproliferative activity in human SW620 cells measured after 12 to 24 hrs by MTT assay. Format: functional, cell-based.
The subject of assay [24] is HCT-116. Briefly: Cytotoxicity against human HCT-116 cells incubated for 24 hrs by MTT assay. The conditions noted are these: HCT-116, 24 h. It counts as functional, cell-based.
Assay [25] deals with HCT-116. The experiment in a line: Antiproliferative activity in human HCT-116 cells measured after 12 to 24 hrs by MTT assay. Format: functional, cell-based.
Assay [26] relates to HT-29. The experiment in a line: Antiproliferative activity against human HT-29 cells measured after 72 hrs by SRB method. Format: functional, cell-based. The note with it: HT-29, 72 h.
For assay [27], the system named is HCT-116. The experiment in a line: Antiproliferative activity against human HCT-116 cells measured after 72 hrs by SRB method. It counts as functional, cell-based. The note with it: HCT-116, 72 h.
The test system of assay [28] is HT-29. Briefly: Antiproliferative activity against human HT-29 cells assessed as inhibition of cell growth incubated for 24 hrs by cell-titer glo assay. It counts as functional.
The subject of the next assay is MC-38. The experiment in a line: Antiproliferative activity against mouse MC38 cells assessed as inhibition of cell growth incubated for 24 hrs by cell-titer glo assay. It counts as functional.
In assay [29] the test system is HCT-116. Briefly: Antiproliferative activity against human HCT-116 cells assessed as inhibition of cell growth incubated for 24 hrs by cell-titer glo assay. Format: functional.
Assay [30] addresses Signal transducer and activator of transcription 3 (Homo sapiens, UniProt P40763). Briefly: Binding affinity to GFP tagged STAT3 (unknown origin) assessed as dissociation constant by microscale thermophoresis analysis.
The test system of assay [31] is HT-29. Briefly: Cytotoxicity against human HT-29 cells assessed as reduction in cell viability by MTT assay. It counts as functional.
Assay [32] relates to HCT-116. Briefly: Cytotoxicity against human HCT-116 cells assessed as reduction in cell viability by MTT assay. Format: functional.
In assay [33] the test system is RKO. Briefly: Cytotoxicity against human RKO cells assessed as reduction in cell viability by MTT assay. Format: functional.
Assay [34] relates to SW480. Briefly: Cytotoxicity against human SW480 cells assessed as reduction in cell viability by MTT assay. Format: functional.

Signal transducer and activator of transcription 3, sequence (P40763 whole entry): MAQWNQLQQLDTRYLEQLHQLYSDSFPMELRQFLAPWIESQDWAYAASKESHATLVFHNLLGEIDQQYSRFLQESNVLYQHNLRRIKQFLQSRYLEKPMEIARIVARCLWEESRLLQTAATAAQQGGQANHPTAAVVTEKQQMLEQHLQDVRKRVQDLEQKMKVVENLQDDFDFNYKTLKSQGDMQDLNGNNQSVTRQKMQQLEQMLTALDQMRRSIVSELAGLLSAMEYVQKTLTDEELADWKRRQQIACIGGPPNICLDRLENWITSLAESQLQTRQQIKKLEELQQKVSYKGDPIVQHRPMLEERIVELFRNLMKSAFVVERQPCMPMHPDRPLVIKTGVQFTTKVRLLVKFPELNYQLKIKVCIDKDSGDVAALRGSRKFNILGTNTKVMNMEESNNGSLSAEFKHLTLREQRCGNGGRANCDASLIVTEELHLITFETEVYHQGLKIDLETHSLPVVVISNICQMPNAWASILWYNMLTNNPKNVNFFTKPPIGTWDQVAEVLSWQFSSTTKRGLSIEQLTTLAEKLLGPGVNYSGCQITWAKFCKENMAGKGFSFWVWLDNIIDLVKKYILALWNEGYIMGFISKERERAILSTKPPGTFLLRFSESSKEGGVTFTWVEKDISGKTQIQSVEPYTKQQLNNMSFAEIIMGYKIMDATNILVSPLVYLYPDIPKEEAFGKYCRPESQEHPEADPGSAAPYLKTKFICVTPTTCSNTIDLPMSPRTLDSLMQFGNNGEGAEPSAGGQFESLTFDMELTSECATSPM
Phospholipase D2, sequence (O14939 whole entry): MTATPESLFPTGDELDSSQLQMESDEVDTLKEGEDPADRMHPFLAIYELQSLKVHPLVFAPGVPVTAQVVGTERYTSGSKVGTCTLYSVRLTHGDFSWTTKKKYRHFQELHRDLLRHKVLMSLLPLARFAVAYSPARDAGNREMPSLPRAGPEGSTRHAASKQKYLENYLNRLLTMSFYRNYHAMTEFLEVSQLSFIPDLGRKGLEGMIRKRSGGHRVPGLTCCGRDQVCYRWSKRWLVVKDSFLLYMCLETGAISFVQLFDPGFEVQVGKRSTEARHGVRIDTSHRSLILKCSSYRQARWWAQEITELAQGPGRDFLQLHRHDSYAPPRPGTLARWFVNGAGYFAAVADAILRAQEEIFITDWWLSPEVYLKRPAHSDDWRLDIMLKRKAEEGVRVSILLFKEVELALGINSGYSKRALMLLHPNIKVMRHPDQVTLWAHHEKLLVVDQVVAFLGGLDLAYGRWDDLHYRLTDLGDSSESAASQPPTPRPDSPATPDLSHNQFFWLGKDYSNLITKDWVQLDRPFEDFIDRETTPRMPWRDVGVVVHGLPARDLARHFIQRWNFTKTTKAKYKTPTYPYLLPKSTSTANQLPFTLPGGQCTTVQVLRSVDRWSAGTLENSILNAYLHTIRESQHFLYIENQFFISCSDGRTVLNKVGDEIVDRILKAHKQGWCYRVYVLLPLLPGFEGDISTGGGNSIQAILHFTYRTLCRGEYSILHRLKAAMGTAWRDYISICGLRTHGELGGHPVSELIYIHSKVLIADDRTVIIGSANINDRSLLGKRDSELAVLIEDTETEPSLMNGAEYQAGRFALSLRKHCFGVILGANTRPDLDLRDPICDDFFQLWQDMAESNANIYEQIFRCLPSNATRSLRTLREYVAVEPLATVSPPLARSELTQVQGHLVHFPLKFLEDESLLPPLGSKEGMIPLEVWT
Phospholipase D1, sequence (Q13393 whole entry): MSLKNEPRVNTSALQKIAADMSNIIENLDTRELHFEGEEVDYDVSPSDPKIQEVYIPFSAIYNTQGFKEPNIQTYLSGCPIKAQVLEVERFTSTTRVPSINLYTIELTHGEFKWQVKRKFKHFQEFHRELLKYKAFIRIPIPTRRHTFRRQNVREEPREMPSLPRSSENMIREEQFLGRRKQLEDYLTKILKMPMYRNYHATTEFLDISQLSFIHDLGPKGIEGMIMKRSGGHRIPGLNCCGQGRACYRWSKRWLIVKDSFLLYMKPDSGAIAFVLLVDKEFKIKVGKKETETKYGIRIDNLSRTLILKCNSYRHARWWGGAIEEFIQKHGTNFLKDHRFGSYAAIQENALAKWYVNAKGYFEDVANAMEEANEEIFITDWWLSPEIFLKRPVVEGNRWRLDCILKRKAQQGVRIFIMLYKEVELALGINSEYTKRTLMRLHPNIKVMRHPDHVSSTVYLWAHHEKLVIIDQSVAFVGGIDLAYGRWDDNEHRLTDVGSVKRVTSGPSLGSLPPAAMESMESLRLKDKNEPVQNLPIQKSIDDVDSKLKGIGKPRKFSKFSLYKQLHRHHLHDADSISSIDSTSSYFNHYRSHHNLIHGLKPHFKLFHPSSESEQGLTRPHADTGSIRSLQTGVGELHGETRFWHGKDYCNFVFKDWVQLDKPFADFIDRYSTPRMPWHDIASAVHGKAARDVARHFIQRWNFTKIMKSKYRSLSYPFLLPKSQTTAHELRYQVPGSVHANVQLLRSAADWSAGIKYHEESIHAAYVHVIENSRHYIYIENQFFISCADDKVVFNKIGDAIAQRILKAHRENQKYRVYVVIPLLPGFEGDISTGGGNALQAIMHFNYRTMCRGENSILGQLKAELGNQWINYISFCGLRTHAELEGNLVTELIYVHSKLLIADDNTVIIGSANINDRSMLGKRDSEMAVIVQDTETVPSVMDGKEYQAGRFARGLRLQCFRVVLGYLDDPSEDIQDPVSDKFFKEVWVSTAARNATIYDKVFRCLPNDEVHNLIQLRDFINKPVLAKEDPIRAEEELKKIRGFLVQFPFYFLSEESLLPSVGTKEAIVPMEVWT

As for `C[C@@H]1CN(CC(=O)N2CC(C)(C)c3nc(CO)c(Cc4ccc(F)cc4)cc32)[C@@H](CN2CCOC[C@H]2C)CN1` [ASTX-660], the IC in the assay on LoVo [1], in the assay on SW-620 [2], in the assay on HT-29 [3], in the assay on DLD-1 [4] and in the assay with HCT-116 [5] was 0.5 nM each time.
Regarding `CC(C)=CC[C@@H](O)C1=CC(=O)c2c(O)ccc(O)c2C1=O` [SHIKONIN], the IC with HCT-116 [6], in the assay with HCT-15, with SW-620 [8], with RKO [9] and with LoVo [10] was 0.5 µM in each case. This compound also registered an IC50 in assay [7] of 170 nM.
As to `CC(=O)O[C@H]1[C@H]2O[C@]23[C@@H]2CC[C@@H]4C[C@@H](O)CC[C@]4(C)[C@H]2CC[C@]3(C)[C@H]1c1ccc(=O)oc1` [CINOBUFAGIN], the results for the IC50 with SW-620 [11], in the assay with HCT-116 [12] and in the assay on RKO [13] were 364 nM, 782 nM and 182 nM, respectively.
Turning to `CC(C)[C@@H]1C[C@@H](O)[C@H]2[C@@]1(C)CC[C@@]1(C)[C@H]3C(=CC[C@]21C)[C@@]1(C)CC[C@H](O)C(C)(C)[C@@H]1C[C@@H]3O` [RUBIARBONOL B], the IC in the assay on HT-29 [14], in the assay with HCT-116 [15] and in the assay with SW-620 [16] was 10 µM throughout.
With `CC(=O)c1ccc2[nH]c(C(=O)Nc3cc(C(F)(F)F)cc(C(F)(F)F)c3)cc2c1`, the IC50 turned out to be 15.1 nM against Phospholipase D2 and 325 nM on Phospholipase D1. For the same compound, the IC with DLD-1 [17] was found to be 1 µM.
Take `CC[C@@]1(O)C(=O)OCc2c1cc1n(c2=O)Cc2cc3cc4c(cc3nc2-1)OCO4`: the IC in the assay with HT-29 [18] and in the assay with SW480 [19] was 0 nM throughout.
Take `C[C@H]1O[C@@H](O[C@H]2[C@@H](O)C[C@H](O[C@H]3[C@@H](O)C[C@H](O[C@H]4CC[C@@]5(C)[C@H](CC[C@@H]6[C@@H]5CC[C@]5(C)[C@@H](C7=CC(=O)OC7)CC[C@]65O)C4)O[C@@H]3C)O[C@@H]2C)C[C@H](O)[C@@H]1O` [DIGITOXIN]: the IC with SW480 [20] and in the assay with SW-620 [21] was 200 nM each time.
Consider `C=C[C@@]12COC(=O)C(=C)[C@@H]1[C@H]1OC(=O)C(=C)[C@@H]1[C@@H](OC(=O)C(=C)CO)C2` [VERNODALIN], for which the concentration for half-maximal inhibition (IC50) worked out at 7170 nM with HT-29 [22], 355000 nM with SW-620 [23], 3170 nM in the assay on HCT-116 [24] and 316000 nM in the assay on HCT-116 [25].
As to `O=C(Nc1ccc([N+](=O)[O-])cc1Cl)c1cc(Cl)ccc1O` [NICLOSAMIDE], the IC50 with HT-29 [26] amounted to 4660 nM; in the assay with HCT-116 [27], 320 nM.
For the compound `O=C(NC1CCN(CCCCC2(C(=O)NCC(F)(F)F)c3ccccc3-c3ccccc32)CC1)c1ccccc1-c1ccc(C(F)(F)F)cc1` [LOMITAPIDE], the IC in the assay on HT-29 [28], with MC-38 and in the assay on HCT-116 [29] was 10 µM in each case.
In the case of `O=C1C(Nc2ccccc2N2CCNCC2)=CC2=NS(=O)(=O)c3cccc1c32`, in assay [30], the equilibrium dissociation constant (Kd) was 3300 nM. Further, the IC with HT-29 [31], in the assay with HCT-116 [32], in the assay with RKO [33] and in the assay on SW480 [34] was 3 µM each time.
